# Laboratory results as given in patent US20100273748A1, “ANTIMICROBIAL THERAPY” (priority 2006, published 2010).
# Tested on: cathelicidin
# Assay: Topical treatment of healthy volunteers' skin, cathelicidin expression
# Type: in vivo, human
# Conditions: topical 1,25D3
# Method: Patients and treatments. Human skin wounds were collected following informed consent by inducing 5 mm full-thickness wounds in volunteers (n=5) under aseptic conditions with local anesthesia as described. At 24 hours after incision, 4 mm punch biopsies were taken from the site of injury and immediately fixed in formalin for immunostaining or frozen in liquid N2 for subsequent RNA isolation. Intact skin from healthy volunteers served as control (n=4). To examine the effects of topical 1,25D3, healthy skin of volunteers (n=7) was treated once topically with 1,25D3 (1.0 mM) and left under occlusion for 4 days. Vehicle treated contralateral skin served as a control. After treatment, skin biopsies were obtained from both sites, fixed in formalin 10% and embedded in paraffin for immunostaining. All treatments and sample acquisitions, including skin biopsies, were approved by the committees on investigations involving human subjects.
# Immunostaining. […] Nuclei were detected with DAPI. After subsequent washings with PBS slides, were mounted in ProLong Anti-Fade reagent (Molecular Probes, Eugene, Oreg.) and evaluated with an Olympus BX41 microscope (Olympus, Melville, N.Y.). […]
# NaOH, pH6.0). […] Sections were washed in PBS and detected with biotinylated secondary antibodies (Vector Laboratories, Burlingame, Calif.) and diaminobenzidine substrate (Sigma) per manufacturers' instructions.
compound,measurement,value
"C=C1/C(=C\C=C2/CCC[C@]3(C)[C@@H]([C@H](C)CCCC(C)(C)O)CC[C@@H]23)C[C@@H](O)C[C@@H]1O [1,25D3, 1,25(OH)2 vitamin D3]",cathelicidin expression in skin,increased expression
